Data from article PMC9405102, “Targeted Modification and Structure-Activity Study of GL-29, an Analogue of the Antimicrobial Peptide Palustrin-2ISb” (Antibiotics, 2022).
pIC50: −log10 of the molar value. Converted amounts (≈) assume the structure as drawn. Read-outs that look alike come from different tables or passages of the source. Where a SMILES comes first, the peptide text is derived from it. Where no end group is shown, it is not given here.

Experiments:
horse erythrocytes = assay type: cell-based; conditions: red cells of horse, 2 h
Protocol: The haemolysis assays were performed by incubating prewashed erythrocyte suspension obtained from fresh defibrinated horse blood (TCS Biosciences Ltd., Buckingham, UK) with a range of peptides at final concentrations from 512 to 1 μM, for 2 h at 37 °C. The red cell suspensions were washed with phosphate-buffered saline (PBS) until the supernatant was clear and then diluted with PBS to form a 2% cell suspension. Peptides were 2-fold diluted by the 2% cell suspension to reach the final concentration range from 512 to 1 μM. The haemolysis of the cell suspensions with either 1% (v/v) Triton X-100 or PBS, were considered as positive controls and negative controls, respectively. After incubation, the extent of haemolysis was determined by measuring the absorbance of the supernatant from each sample at 570 nm with a Synergy HT plate reader (BioTek, USA).
(§1) Data were analysed using Prism (Version 8.2.1; GraphPad Software, Inc, San Diego, CA, USA). Error bars in the graphs represented standard errors of means (SEM) of nine repeats from three independent tests. The statistical significance was calculated using two-way ANOVA and is indicated as ns (non-significant difference), * (p < 0.05), ** (p < 0.01), *** (p < 0.001), ****(p < 0.0001). The HC10, HC50 and IC50 values were calculated using the online tool AAT Bioquest (https://www.aatbio.com/index.html, accessed on 6 May 2022).

[1] = test system: human keratinocyte cell line, HaCaT; assay type: cell-based; conditions: 24 h
Protocol: (§2) The proliferative inhibition effect of GL-29 and its analogues were assessed by MTT assay as described in a previous study. HaCaT cell line (human keratinocytes) and four cancer cell lines, U251MG (human glioblastoma astrocytoma cell line), HCT116 (human colon cancer cell line), H157 (human non-small lung cancer cell line) and H838 (human lung carcinoma cancer cell line), were used in this assay. A total of 8000 cells/per well were seeded in the 96-well plate for 24 h and then treated with peptides at the concentration from 100 μM to 100 nM for 24 h. In this assay, 1% Triton X-100 and PBS were set as a positive and negative control, respectively. After which, the formazan was dissolved in DMSO and the OD value was detected by use of a Synergy HT plate reader (BioTek, Minneapolis, MN, USA) at λ = 570 nm.
as §1

[2] = test system: S. aureus (ATCC CRM 6538); assay type: cell-based, Staphylococcus aureus
Protocol: The MBIC and MBEC assays were performed to measure the inhibition and eradication of bacterial biofilm in the presence of different concentrations of peptides. Gram-positive bacteria were inoculated in Luria–Bertani (LB) broth at 37 °C overnight whereas Gram-negative bacteria were inoculated in tryptic soy broth (TSB), and then sub-cultured until reaching the logarithmic growth phase by measuring the OD values at a wavelength of 550nm. For the MBIC assay, 99 µL of diluted bacterial suspension (5 × 10^5 CFU/mL) was mixed with 1 µL of prepared peptide solutions in the wells of a round-bottomed 96-well plate, achieving the final concentrations from 512 to 1 µM, and then incubated at 37 °C for 24 h in a shaking incubator at 200 revolutions per minute (rpm). After this, the plate was washed twice by PBS and fixed with methanol for 30 min. For MBEC assay, 100 µL of diluted bacterial suspension (5 × 10^5 CFU/mL) was seeded into a round-bottomed 96-well plate and incubated at 37 °C for 24 h in a shaking incubator at 200 rpm to obtain mature biofilm. After this, plates were washed twice by PBS and incubated with different concentrations of peptide solution from 512 to 1 µM at 37 °C for 24 h. Afterwards, the plate was washed twice with PBS and fixed with methanol for 30 min. Then, both MBIC and MBEC plates were stained by 130 μL of 0.1% (g/v) crystal violet solutions for 30 min and washed with PBS until no apparent staining was observed. Evaporating crystal violet stains were dissolved by 33% (v/v) acetic acid, and the absorbance values were measured by a Synergy HT Microplate Reader (BioTek, Minneapolis, MN, USA) set to 595 nm. The minimum concentration that inhibited the formation of biofilm was defined when compared to the negative control group, as the MBIC. The minimum concentration that eradicated the biofilm was defined, when compared to the negative control group, as the MBEC. The biofilm assays were performed in triplicate.

H157 = assay: MTT antiproliferative assay; assay type: cell-based, human; conditions: 24 h
Protocol: as §2, §1

H838 = assay: MTT antiproliferative assay; assay type: cell-based, human
Protocol: as §2, §1

HCT116 = assay: MTT antiproliferative assay; assay type: cell-based, human
Protocol: as §2, §1

U251MG = assay: MTT antiproliferative assay; assay type: cell-based, human
Protocol: as §2, §1

[3] = test system: Galleria mellonella larvae (waxworms); assay: Toxicity of peptide in larvae in vivo; conditions: uninfected larvae
Protocol: In this assay, Galleria mellonella larvae (waxworms) (Livefood UK Ltd., Rooks Bridge, UK) were used as an infection model to investigate the antimicrobial potency of peptides against S. aureus, which was described in a previous study in detail (Yuan et al., 2019). The larvae, weights between 225 mg and 275 mg, were selected, and nine larvae were stored in a separate Petri dish as a group and they were divided into several groups. Then, 10 µL of the peptide solution at final concentrations of 8 µM and 16 µM, respectively, and 10 µL of PBS were injected into larvae to test the toxicity of peptides and PBS solution. Afterwards, 10 μL of the bacterial suspension in PBS (5 × 10^7 CFU/mL) were injected into larvae. All the infected larvae were ensured to be alive after 2 h of the injection, followed by the treatment with 10 μL of the peptide solution to reach final concentrations of 2, 4 and 8 μM, respectively. The negative control was treated with the same volume of PBS, and the positive control was dosed with the same volume of 20 mg/kg vancomycin (Sigma-Aldrich, UK). The number of living larvae was counted every 24 h for 5 days, except the first day of 12 h.

[4] = test system: Staphylococcus aureus (S. aureus); parameters: method as in PMID 21911019; conditions: cited from earlier work
[5] = test system: Escherichia coli (E. coli); parameters: method as in PMID 21911019; conditions: cited from earlier work
[6] = test system: methicillin-resistant S. aureus (MRSA); parameters: method as in PMID 21911019; conditions: cited from earlier work
C. albicans = test system: C. albicans; parameters: method as in PMID 21911019; conditions: C. albicans; cited from earlier work

Row | Compound | HC10 (horse erythrocytes) | HC50 (horse erythrocytes) | pIC50 [1] | MBEC ([2]; ATCC CRM 6538, 24 h) | MBIC ([2]; ATCC CRM 6538, 24 h) | pIC50 (H157) | pIC50 (H838; H838, MTT, 24 h) | pIC50 (HCT116; HCT116, MTT, 24 h) | pIC50 (U251MG; MTT, 24 h) | toxicity against larvae ([3]; 2 × MIC (20 mg/kg)) | toxicity against larvae ([3]; 4 × MIC (40 mg/kg)) | MIC [4] | MIC [5] | MIC [6] | MIC (C. albicans) | MBEC ([2]; biofilm eradication, S. aureus (ATCC CRM 6538)) | MBIC ([2]; biofilm formation, S. aureus (ATCC CRM 6538)) | inhibition of proliferative activity (H838; H838, 100 µM (highest concentration)) | inhibition of proliferative activity (HCT116; HCT116, 100 µM (highest concentration)) | inhibition of proliferative activity (U251MG; 100 µM (highest concentration))
1 | GLWNSIKIAGKKLFVNVLDKIR-NH2 [GL-22] | 87.304 µM | 254.11 µM | 4.41 | > 512 µM | 8 µM | 5.03 | 4.60 | 3.89 | 4.39 | no toxicity | high toxicity | – | – | – | – | – | – | – | – | –
2 | CC[C@H](C)[C@H](NC(=O)[C@H](CCCCN)NC(=O)[C@@H](NC(=O)[C@H](CO)NC(=O)[C@H](CC(N)=O)NC(=O)[C@H](Cc1c[nH]c2ccccc12)NC(=O)[C@H](CC(C)C)NC(=O)CN)[C@@H](C)CC)C(=O)N[C@@H](C)C(=O)NCC(=O)N[C@@H](CCCCN)C(=O)N[C@@H](CCCCN)C(=O)N[C@@H](CC(C)C)C(=O)N[C@@H](Cc1ccccc1)C(=O)N[C@H](C(=O)N[C@@H](CC(N)=O)C(=O)N[C@H](C(=O)N[C@@H](CC(C)C)C(=O)N[C@@H](CC(=O)O)C(=O)N[C@@H](CCCCN)C(=O)N[C@H](C(=O)N[C@@H](CCCNC(=N)N)C(=O)N[C@H]1CSSC[C@@H](C(=O)O)NC(=O)CNC(=O)CNC(=O)[C@H](C)NC(=O)[C@H](C(C)C)NC(=O)[C@H](CCCCN)NC1=O)[C@@H](C)CC)C(C)C)C(C)C [GL-29] (HELM PEPTIDE1{G.L.W.N.S.I.K.I.A.G.K.K.L.F.V.N.V.L.D.K.I.R.C.K.V.A.G.G.C}$PEPTIDE1,PEPTIDE1,23:R3-29:R3$$$V2.0; N-terminus and C-terminus assumed; bridges inferred) | 5.86 µM | 33.03 µM | 5.30 | 128 µM | 4 µM | – | – | – | – | – | – | 6.3 µM (≈ 19.7 µg/mL) | 1.6 µM (≈ 5.01 µg/mL) | 12.5 µM (≈ 39.1 µg/mL) | 100 µM (≈ 313 µg/mL) | – | – | – | – | –
3 | GLWNSIKIA-NH2 [GL-9, GLWNSIKIA-NH2] | – | – | – | – | – | – | – | – | – | – | – | – | – | – | – | >512 µM | >512 µM | 20–40% | 20–40% | 20–40%
